{"source": "ChEMBL document CHEMBL3085700", "about": "(J Med Chem, 2013)", "key": {"[1]": {"target": "T1, Fatty-acid amide hydrolase 1 (Homo sapiens, UniProt O00519)", "T1 sequence (O00519 whole entry)": "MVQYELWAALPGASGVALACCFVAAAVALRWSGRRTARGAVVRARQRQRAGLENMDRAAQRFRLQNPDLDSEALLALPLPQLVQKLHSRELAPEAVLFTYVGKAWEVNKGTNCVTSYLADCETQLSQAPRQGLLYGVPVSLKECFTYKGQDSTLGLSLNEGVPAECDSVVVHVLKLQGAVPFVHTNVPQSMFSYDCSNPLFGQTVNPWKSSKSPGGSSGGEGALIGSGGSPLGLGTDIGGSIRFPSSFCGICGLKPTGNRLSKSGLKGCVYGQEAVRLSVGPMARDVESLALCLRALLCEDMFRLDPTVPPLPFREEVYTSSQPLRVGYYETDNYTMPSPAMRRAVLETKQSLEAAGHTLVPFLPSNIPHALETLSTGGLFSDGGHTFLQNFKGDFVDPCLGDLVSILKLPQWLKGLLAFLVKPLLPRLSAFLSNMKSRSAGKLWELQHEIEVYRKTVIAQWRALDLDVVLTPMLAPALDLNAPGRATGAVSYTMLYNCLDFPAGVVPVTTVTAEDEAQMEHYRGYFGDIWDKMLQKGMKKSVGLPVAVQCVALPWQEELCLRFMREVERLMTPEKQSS", "test": "Inhibition of human recombinant FAAH overexpressed in African green monkey COS7 cells using [3H]-anandamide as substrate preincubated for 10 mins before substrate addition measured after 10 mins by liquid scintillation counting analysis", "format": "cell-based, COS-7"}, "Homo sapiens": {"organism": "Homo sapiens", "test": "Selectivity ratio for human recombinant FAAH over human recombinant COX-2"}, "[2]": {"test": "Selectivity ratio for human recombinant FAAH over ovine COX-1"}, "[3]": {"target": "Cannabinoid receptor 2 (Homo sapiens) (UniProt P34972)", "sequence (P34972 whole entry)": "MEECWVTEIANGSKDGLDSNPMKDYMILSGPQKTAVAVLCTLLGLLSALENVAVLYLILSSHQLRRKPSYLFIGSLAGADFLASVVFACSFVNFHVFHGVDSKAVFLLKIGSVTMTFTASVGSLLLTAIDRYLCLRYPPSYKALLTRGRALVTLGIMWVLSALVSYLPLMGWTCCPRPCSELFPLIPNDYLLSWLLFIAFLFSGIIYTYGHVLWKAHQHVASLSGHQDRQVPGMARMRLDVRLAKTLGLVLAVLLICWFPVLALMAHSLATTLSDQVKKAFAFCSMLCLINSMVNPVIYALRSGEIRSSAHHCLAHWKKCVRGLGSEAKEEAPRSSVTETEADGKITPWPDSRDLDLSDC", "test": "Agonist activity at human CB2 receptor expressed in CHO cell membranes up to 10 uM incubated for 10 mins prior to testing by [35S]GTPgammaS binding assay", "format": "functional"}, "[4]": {"target": "T2, Prostaglandin G/H synthase 2 (Homo sapiens) (UniProt P35354)", "T2 sequence (whole entry)": "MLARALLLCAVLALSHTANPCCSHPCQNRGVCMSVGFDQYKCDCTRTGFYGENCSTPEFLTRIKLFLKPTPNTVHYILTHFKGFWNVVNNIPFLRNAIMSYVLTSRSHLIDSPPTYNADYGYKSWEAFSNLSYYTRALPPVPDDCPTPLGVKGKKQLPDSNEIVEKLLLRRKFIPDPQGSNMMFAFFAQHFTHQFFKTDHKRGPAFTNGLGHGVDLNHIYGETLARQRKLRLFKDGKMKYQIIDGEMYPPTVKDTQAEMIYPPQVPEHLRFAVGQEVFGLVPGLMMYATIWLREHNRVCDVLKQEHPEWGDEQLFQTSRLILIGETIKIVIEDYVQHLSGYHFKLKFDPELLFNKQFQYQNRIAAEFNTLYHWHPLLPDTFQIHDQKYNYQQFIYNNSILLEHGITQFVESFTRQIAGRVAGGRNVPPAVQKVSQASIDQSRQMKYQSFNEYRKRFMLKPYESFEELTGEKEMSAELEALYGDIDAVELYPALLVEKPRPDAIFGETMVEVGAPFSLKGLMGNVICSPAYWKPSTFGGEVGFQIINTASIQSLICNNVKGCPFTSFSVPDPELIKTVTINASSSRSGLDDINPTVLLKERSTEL", "test": "Inhibition of human recombinant COX-2 using arachidonic acid as substrate assessed as oxygen consumption at 30 to 100 uM measured within 10 to 50 secs relative to control"}, "[5]": {"target": "T2, Prostaglandin G/H synthase 2 (Homo sapiens)", "test": "Inhibition of human recombinant COX-2 using arachidonic acid as substrate assessed as oxygen consumption at 10 uM measured within 10 to 50 secs relative to control"}, "[6]": {"target": "T3, Monoglyceride lipase (Mus musculus) (UniProt O35678)", "T3 sequence (whole entry)": "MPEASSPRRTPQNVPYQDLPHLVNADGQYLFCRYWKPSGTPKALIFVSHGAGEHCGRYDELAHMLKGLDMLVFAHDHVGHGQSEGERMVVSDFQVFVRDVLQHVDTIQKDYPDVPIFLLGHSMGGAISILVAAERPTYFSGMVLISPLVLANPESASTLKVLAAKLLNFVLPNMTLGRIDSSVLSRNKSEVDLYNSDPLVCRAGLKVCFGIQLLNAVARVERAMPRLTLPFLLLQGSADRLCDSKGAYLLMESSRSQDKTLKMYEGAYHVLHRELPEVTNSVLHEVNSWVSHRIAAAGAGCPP", "test": "Inhibition of TAMRA-FP-labeled MAGL in mouse brain membrane at 10 uM after 1 hr by fluorescent gel scanning assay", "format": "cell membranes"}, "[7]": {"target": "T4, Fatty-acid amide hydrolase 1 (Mus musculus) (UniProt O08914)", "T4 sequence (whole entry)": "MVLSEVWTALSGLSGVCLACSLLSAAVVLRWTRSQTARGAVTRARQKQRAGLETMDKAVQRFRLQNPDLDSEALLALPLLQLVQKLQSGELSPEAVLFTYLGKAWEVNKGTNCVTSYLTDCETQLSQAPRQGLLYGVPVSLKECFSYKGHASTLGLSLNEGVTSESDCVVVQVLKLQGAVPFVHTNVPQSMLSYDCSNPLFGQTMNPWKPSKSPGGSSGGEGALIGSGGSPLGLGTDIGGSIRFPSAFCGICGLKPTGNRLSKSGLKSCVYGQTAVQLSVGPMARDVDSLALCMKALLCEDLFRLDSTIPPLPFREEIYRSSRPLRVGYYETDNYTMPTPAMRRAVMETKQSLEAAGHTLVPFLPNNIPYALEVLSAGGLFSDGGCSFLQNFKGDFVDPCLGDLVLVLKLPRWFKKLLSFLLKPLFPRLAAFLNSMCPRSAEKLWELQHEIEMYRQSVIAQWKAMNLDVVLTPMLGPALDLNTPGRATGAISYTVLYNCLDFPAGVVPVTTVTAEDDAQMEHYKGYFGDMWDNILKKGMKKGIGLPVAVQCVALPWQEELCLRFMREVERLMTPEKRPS", "test": "Inhibition of TAMRA-FP-labeled FAAH in mouse brain membrane at 1 uM after 1 hr by fluorescent gel scanning assay", "format": "cell membranes"}, "[8]": {"target": "T5, Fatty-acid amide hydrolase 1 (Homo sapiens) (UniProt O00519)", "T5 sequence (whole entry)": "T1 sequence (O00519 whole entry)", "test": "Noncompetitive inhibition of human recombinant FAAH overexpressed in African green monkey COS7 cells using anandamide as substrate assessed as decrease in Vmax of substrate hydrolysis preincubated for 10 mins before substrate addition measured after 10 mins by HPLC analysis", "conditions": "COS-7"}, "[9]": {"target": "T5, Fatty-acid amide hydrolase 1 (Homo sapiens)", "test": "Reversible inhibition of human recombinant FAAH overexpressed in African green monkey COS7 cells using […] as substrate assessed as recovery of enzyme activity at 20 x IC50 preincubated for 60 mins followed by 500 fold dilution measured after 10 mins by HPLC analysis", "format": "cell-based", "conditions": "COS-7"}, "[10]": {"target": "T5, Fatty-acid amide hydrolase 1 (Homo sapiens)", "test": "Inhibition of human recombinant FAAH overexpressed in African green monkey COS7 cells using [3H]-anandamide as substrate at 10 to 300 uM preincubated for 10 to 60 mins by liquid scintillation counting analysis", "format": "cell-based", "conditions": "COS-7"}}, "note": "pIC50: −log10 of the molar value. Active and inactive are the calls of the source. The calls are words filed in the database; no cut-off is given here.", "data": [{"smiles": "COc1nn([C@@H](C)c2ccc(CC(C)C)cc2)c(=O)o1", "values": [{"measurement": "pIC50", "setting": "[1]; read-out: IC50", "value": 7.96}, {"measurement": "IC50", "setting": "[1]; read-out: pIC50 (converted)", "value": 11.5, "unit": "nM"}, {"measurement": "Selectivity ratio", "setting": "Homo sapiens", "value": "> 900"}, {"measurement": "Selectivity ratio", "setting": "[2]", "value": "> 900"}, {"measurement": "Activity", "setting": "[3]", "value": "inactive"}, {"measurement": "inhibition", "setting": "[4]", "value": 30, "unit": "%"}, {"measurement": "inhibition", "setting": "[5]", "value": 20, "unit": "%"}, {"measurement": "inhibition", "setting": "[6]", "value": "inactive"}, {"measurement": "inhibition", "setting": "[7]", "value": "Active"}, {"measurement": "inhibition", "setting": "[8]", "value": "Dose-dependent effect"}, {"measurement": "inhibition", "setting": "[9]", "value": "Active"}, {"measurement": "inhibition", "setting": "[10]", "value": "Active"}]}]}
